ChEMBL document CHEMBL1201862, “PubChem BioAssay data set” (2004)
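Five concentrations, 48 hours, 96-well plates. Abbreviation: GI50, concentration required for 50% inhibition of growth.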 Calls of active or inactive are those of the source. Rule as the data show it: active = GI50 up to about 1.1 µM and inactive = higher.

How the values were obtained:
Assay in all cases: NCI-60 cell line screen, 48 h
[1] = test system: A549
[2] = test system: ACHN
[3] = test system: LXFL 529
[4] = test system: SK-MEL-28
[5] = test system: SNB-19
[6] = test system: LOX IMVI
[7] = test system: COLO 205
[8] = test system: SF-539
[9] = test system: 786-0
[10] = test system: MOLT-4
[11] = test system: NCI-H226
[12] = test system: OVCAR-8
[13] = test system: K562
[14] = test system: UACC-62
[15] = test system: NCI-H522
[16] = test system: SR
[17] = test system: HCT-116
[18] = test system: SNB-78
[19] = test system: OVCAR-4
[20] = test system: NCI-H23
[21] = test system: SF-295
[22] = test system: SN12C
[23] = test system: SF-268
[24] = test system: Malme-3M
[25] = test system: A498
[26] = test system: HOP-62
[27] = test system: EKVX
[28] = test system: M14
[29] = test system: KM12
[30] = test system: DLD-1
[31] = test system: IGROV-1
[32] = test system: U-251
[33] = test system: HCT-15
[34] = test system: HOP-92
[35] = test system: HCC 2998
[36] = test system: DMS-114
[37] = test system: SK-OV-3
[38] = test system: NCI-H460
[39] = test system: SW-620
[40] = test system: SK-MEL-2
[41] = test system: UACC-257
[42] = test system: HT-29
[43] = test system: CCRF-CEM
[44] = test system: CAKI-1
[45] = test system: SK-MEL-5
[46] = test system: OVCAR-3
[47] = test system: OVCAR-5
[48] = test system: RPMI-8226
[49] = test system: UO-31

## COC(=O)C(Cc1nc2ccc(Cl)cc2nc1O)/C(=N\N)C(=O)Nc1cc(C)c(Cl)cc1S(=O)(=O)O (centres undefined)
[1]
  GI50: > 100 µM (inactive)
[2]
  GI50: > 100 µM (inactive)
[3]
  GI50: > 100 µM (inactive)
[4]
  GI50: > 100 µM (inactive)
[5]
  GI50: > 100 µM (inactive)
[6]
  GI50: > 100 µM (inactive)
[7]
  GI50: > 100 µM (inactive)
[8]
  GI50: > 100 µM (inactive)
[9]
  GI50: > 100 µM (inactive)
[10]
  GI50: > 100 µM (inactive)
[11]
  GI50: 47.1 µM (inactive)
[12]
  GI50: > 100 µM (inactive)
[13]
  GI50: > 100 µM (inactive)
[14]
  GI50: > 100 µM (inactive)
[15]
  GI50: 90.6 µM (inactive)
[16]
  GI50: 99.8 µM (inactive)
[17]
  GI50: > 100 µM (inactive)
[18]
  GI50: > 100 µM (inactive)
[19]
  GI50: > 100 µM (inactive)
[20]
  GI50: > 100 µM (inactive)
[21]
  GI50: > 100 µM (inactive)
[22]
  GI50: > 100 µM (inactive)
[23]
  GI50: > 100 µM (inactive)
[24]
  GI50: > 100 µM (inactive)
[25]
  GI50: 70.3 µM (inactive)
[26]
  GI50: > 100 µM (inactive)
[27]
  GI50: > 100 µM (inactive)
[28]
  GI50: > 100 µM (inactive)
[29]
  GI50: > 100 µM (inactive)
[30]
  GI50: > 100 µM (inactive)
[31]
  GI50: > 100 µM (inactive)
[32]
  GI50: > 100 µM (inactive)
[33]
  GI50: > 100 µM
[34]
  GI50: 24.3 µM (inactive)
[35]
  GI50: > 100 µM (inactive)
[36]
  GI50: 73.5 µM (inactive)
[37]
  GI50: > 100 µM (inactive)
[38]
  GI50: > 100 µM (inactive)
[39]
  GI50: > 10 µM (inactive)
[40]
  GI50: > 100 µM (inactive)
[41]
  GI50: > 100 µM (inactive)
[42]
  GI50: > 100 µM (inactive)
[43]
  GI50: 43.1 µM (inactive)
[44]
  GI50: > 100 µM (inactive)
[45]
  GI50: > 100 µM (inactive)
[46]
  GI50: > 100 µM (inactive)
[47]
  GI50: 75.7 µM (inactive)
[48]
  GI50: 88.3 µM (inactive)
[49]
  GI50: > 100 µM (inactive)
